Consider 7 molecules from US4207318A, “Novel imidazobenzoxazines” (Roussel Uclaf, priority 1977, dated 1980).

Read-outs that look alike come from different tables or passages of the source.

The subject of the experiment is Passive cutaneous anaphylaxis. Put plainly: Passive cutaneous anaphylaxis (PCA) in rats. Format: in vivo. The settings on record: Rattus norvegicus, read-out: ED50 (dose of drug giving 50% inhibition), dosed immediately prior to challenge, male rats, ovalbumen antigen. How it is done: Passive cutaneous anaphylaxis (PCA) in rats
The following compounds were tested for their physiological activity in the test: methyl 8-chloro-4H-imidazo-[2,1-c][1,4]-benzoxazine-2-carboxylate (compound A), methyl 8-methyl-4H-imidazo-[2,1-c][1,4]-benzoxazine-2-carboxylate (compound B), 8-chloro-4H-imidazo-[2,1-c][1,4]-benzoxazine-2-carboxylic acid (compound C), 7-methyl-4H-imidazo-[2,1-c][1,4]-benzoxazine-2-carboxylic acid (compound D), 8-chloro-7-methyl-4H-imidazo-[2,1-c][1,4]-benzoxazine-2-carboxylic acid (compound E), 6-methoxy-4H-imidazo-[2,1-c][1,4]-benzoxazine-2-carboxylic acid (compound F) and 8-methyl-4H-imidazo-[2,1-c][1,4]-benzoxazine-2-carboxylic acid (compound G).
Cutaneous anaphylaxis was induced in rats by intradermal (ID) sensitization with antiserum followed three days later by systemic challenge with antigen. Evans blue dye injected with the antigen is used as a marker to assess the severity of the local response. Anti-allergic drugs inhibit this reaction. This method has been described by OVARY (1962) "Passive Cutaneous Anaphylaxis in Allergology" Page 358-367 Ed. Brown: Pergamon Press. Animals: -male rats weighing 180-220 grams are used in groups of seven.
Preparation of Antigen for Sensitization (Alum precipitated ovalbumen)
1. Wash 120 grams of Al(OH)3 gel in 140 ml of saline (use of a macerater facilitates mixing).
2. Centrifuge at 3,000 rpm for about 10 minutes.
3. Resuspend the precipitate with 300 ml of albumen egg powder (1.3 mg/ml) in saline and allow to stand for 30 minutes.
4. Centrifuge at 3,000 rpm for 10 minutes.
5. Weigh the wet precipitate and to each gram weight add 1 ml of saline. Store in refrigerator (Quantity sufficient for 60 rats for a 3 day sensitization program).
Preparation of Antiserum (anti-ovalbumen)
1 ml of the alum precipitated ovalbumen was injected subcutaneously into rats weighing 180-200 grams on days 0,2,4. The rats were bled on day 14 either by cardiac puncture or via the dorsal abdominal aorta. Equal quantities of serum from each animal were pooled and thoroughly mixed and 2 ml aliquots were stored at -20° C. in plastic tubes.
The antiserum for sensitization was diluted so that an ID injection of 0.1 ml into control animals would give an average score of a single spot of between 2.0-3.5 using 5 point scoring system.
(A) SENSITIZATION: The rats were anaesthetized Nembutal (40-60 mg/kg i.p) and were then sensitized by four ID injections (0.1 ml each) on their shaved backs. The animals were then left for a period of three days to develop sensitization.
(B) […]: The sensitized rats were dosed orally or intraveneously with the drug immediately prior to intraveneous challenge via the superficial penile vein with 1 ml of an antigen/Evans blue mixture (1 mg albumen egg powder in 0.5 ml saline plus 0.5 ml of 1% Evans blue). The injections were speeded up by using an automatic 1 ml self-filling glass syringe. The "challenged" rats were killed after 30 minutes, (usually pithed) and their skin on the dorsal surface was removed. The degree and area of blueing, proportional to the anaphylactic reaction was assessed on a five point scoring system.
1. Total scores for sites 1,2,3 and 4=X
2. Mean value of X for each group=X
X c=X for control group [formula] 5.
ED50 values for the compounds tested in the passive cutaneous anaphylaxis screen (in rats) are as follows: […]

As for `COC(=O)c1cn2c(n1)COc1ccc(Cl)cc1-2` [A, methyl 8-chloro-4H-imidazo-[2,1-c][1,4]-benzoxazine-2-carboxylate], the ED50 (usually the midpoint of the dose-response relation) (P.O. (oral)) turned out to be 2.79 mg/kg.

For the molecule `COC(=O)c1cn2c(n1)COc1ccc(C)cc1-2` [B, methyl 8-methyl-4H-imidazo-[2,1-c][1,4]-benzoxazine-2-carboxylate], the ED50 (P.O. (oral)) was 1.46 mg/kg.

In the case of `O=C(O)c1cn2c(n1)COc1ccc(Cl)cc1-2` [C, 8-chloro-4H-imidazo-[2,1-c][1,4]-benzoxazine-2-carboxylic acid], the ED50 is, setting by setting: (I.V. (intravenous)) 0.42 mg/kg; (P.O. (oral)) 0.13 mg/kg.

Consider `Cc1ccc2c(c1)OCc1nc(C(=O)O)cn1-2` [D, 7-methyl-4H-imidazo-[2,1-c][1,4]-benzoxazine-2-carboxylic acid], for which the ED50 (I.V. (intravenous)) came to 0.39 mg/kg and the ED50 (P.O. (oral)) was 4 mg/kg.

As for `Cc1cc2c(cc1Cl)-n1cc(C(=O)O)nc1CO2` [E, 8-chloro-7-methyl-4H-imidazo-[2,1-c][1,4]-benzoxazine-2-carboxylic acid], for the setting “I.V. (intravenous)”, the ED50 was 0.75 mg/kg.

On to `COc1cccc2c1OCc1nc(C(=O)O)cn1-2` [F, 6-methoxy-4H-imidazo-[2,1-c][1,4]-benzoxazine-2-carboxylic acid], for which the median effective dose (ED50) (I.V. (intravenous)) worked out at 3.27 mg/kg.

Turning to `Cc1ccc2c(c1)-n1cc(C(=O)O)nc1CO2` [G, 8-methyl-4H-imidazo-[2,1-c][1,4]-benzoxazine-2-carboxylic acid], the median effective dose (ED50) was 0.35 mg/kg (I.V. (intravenous)) and 0.37 mg/kg (P.O. (oral)).
